18 compounds from patent publication US4476137A, “[1-(2-Benzoxazolyl)hydrazino]alkyl nitrile derivatives” (Abbott Laboratories, priority 1983, dated 1984) can be followed below.

The first assay relates to carrageenin pleurisy. The assay is described as follows: modified carrageenin pleurisy assay (reduction in accumulation of exudate volume and leukocytes). It counts as in vivo. Particulars: Dose 100 (unit not given). From the text:
The anti-inflammatory activity of these compounds was established by using a modification of the carrageenin pleurisy assay described in Vinegar et al. Proc. Soc. Exp. Biol. Med. 143:711 (1973).
For `N#CCCN(N)c1nc2ccccc2o1` [3-[1-(2-Benzoxazolyl)hydrazino]propanenitrile], the “% Inhibition Cells (leukocyte accumulation)” value was 39% and the “% Inhibition Volume exudates” value is on record as 61%.
On to `CCCCC1C(=O)N(c2ccccc2)N(c2ccccc2)C1=O` [Phenylbutazone, reference compound], for which the “% Inhibition Cells (leukocyte accumulation)” value is 13% and the “% Inhibition Volume exudates” value turned out to be 59%.

A further assay deals with dermal Arthus reaction. The assay is described as follows: reverse passive Arthus reaction test (Type III hypersensitivity), reduction of dermal lesion. It counts as in vivo, Male Sprague-Dawley rats. Particulars: 100 mg/kg oral, 30 min before intradermal Anti-B.S.A.; lesion measured four hours later; 4 rats per group. As for the experimental part:
Proc. 35, 774 (1976). Each compound was administered orally to a group of four animals.
The […] passive Arthus reaction test in rats is conducted as follows: Male Sprague-Dawley rats weighing approximately 130-160 g. are used, 4 rats per group. All animals are injected intravenously with 0.5 ml. 0.075% Bovine Serum Albumin (B.S.A.)+2% Evans Blue solution. Each rat then receives an oral dose of drug; one drug is administered per group.
Thirty minutes subsequent to drug dosing, each animal is injected intradermally with 0.05 ml. 1.44% Anti-B.S.A. into the dorsal skin. Four hours later the animals are sacrificed, the dorsal skin reflexed, and the lesion excised. Two perpendicular diameters of each lesion are measured. The average diameters of the lesions from the treated groups are compared with the average diameters from the control group to determine any drug effect.
Regarding `N#CCCN(N)c1nc2ccccc2s1` [3-[1-(2-benzthiazolyl)hydrazino]propanenitrile], the “% Inhibition of lesion of dermal Arthus reaction” value is 59%.
Same read-out and setting: to `CCCCC1C(=O)N(c2ccccc2)N(c2ccccc2)C1=O` [Phenylbutazone, reference compound] belongs “inactive”.

Still in this assay, the particulars now being: Rattus norvegicus, 4 h; 100 mg/kg oral, 30 min before intradermal Anti-B.S.A.; lesion measured four hours later; 4 rats per group.
The compound `N#CCCN(N)c1nc2ccccc2o1` [3-[1-(2-Benzoxazolyl)hydrazino]propanenitrile] registered an inhibition in vivo at 100 mg/kg of 68%.
As for `CC(C#N)CN(N)c1nc2ccccc2o1` (stereo not shown) [3-[1-(2-benzoxazolyl)hydrazino]-2-methylpropanenitrile], the inhibition in vivo at 100 mg/kg was 45%.
Take `CC(CC#N)N(N)c1nc2ccccc2o1` (stereo not shown) [3-[1-(2-benzoxazolyl)hydrazino]-3-methylpropanenitrile]: the inhibition in vivo at 100 mg/kg was determined as 48%.
`Cc1cc2oc(N(N)CCC#N)nc2c(C)c1C` [3-[1-(4,5,6-Trimethyl-2-benzoxazolyl)hydrazino]propanenitrile]: the inhibition in vivo at 100 mg/kg came to 59%.
For the compound `Cc1cc(C)c2oc(N(N)CCC#N)nc2c1C` [3-[1-(4,5,7-Trimethyl-2-benzoxazolyl)hydrazino]propanenitrile], the inhibition in vivo at 100 mg/kg came out at 55%.
Same read-out and setting: next, `Cc1cc(C)c2oc(N(N)CCC#N)nc2c1` [3-[1-(5,7-dimethyl-2-benzoxazolyl)hydrazino]propanenitrile]: 59%; `N#CCCN(N)c1nc2cc(C#N)ccc2o1` [3-[1-(5-cyano-2-benzoxazolyl)hydrazino]propanenitrile]: 66%.
Take `N#CCCN(N)c1nc2cc(F)ccc2o1` [3-[1-(5-fluoro-2-benzoxazolyl)hydrazino]propanenitrile]: the inhibition in vivo at 100 mg/kg is 55%.
In the case of `N#CCCN(N)c1nc2cc(CS)ccc2o1` [3-[1-(5-mercaptomethyl-2-benzoxazolyl)hydrazino]propanenitrile], the inhibition in vivo at 100 mg/kg is 40%.
Still for that read-out and setting: next, `COc1ccc2oc(N(N)CCC#N)nc2c1` [3-[1-(5-methoxy-2-benzoxazolyl)hydrazino]propanenitrile]: 67%.
As to `Cc1ccc2oc(N(N)CCC#N)nc2c1` [3-[1-(5-methyl-2-benzoxazolyl)hydrazino]propanenitrile], at 100 mg/kg the inhibition in vivo was 70%.
Still for that read-out and setting: to `N#CCCN(N)c1nc2cc(C(F)(F)F)ccc2o1` [3-[1-(5-trifluoromethyl-2-benzoxazolyl)hydrazino]propanenitrile] belongs 48%.
Regarding `Cc1ccc2nc(N(N)CCC#N)oc2c1` [3-[1-(6-methyl-2-benzoxazolyl)hydrazino]propanenitrile], testing at 100 mg/kg gave an inhibition in vivo of 58%.
On to `Cc1cc2oc(N(N)CCC#N)nc2cc1Cl` [3-[1-(6-methyl-5-chloro-2-benzoxazolyl)hydrazino]propanenitrile], for which the inhibition in vivo at 100 mg/kg turned out to be 76%.
Same read-out and setting: to `N#CCCN(N)c1nc2cccc(Cl)c2o1` [3-[1-(7-Chloro-2-benzoxazolyl)hydrazino]propanenitrile] belongs 48%; to `Cc1cccc2nc(N(N)CCC#N)oc12` [3-[1-(7-methyl-2-benzoxazolyl)hydrazino]propanenitrile], 47%.

A word on the inhibition in vivo: it is the percentage by which the read-out fell short of the control. Low values mean a response near the control, high ones a response far below the control.
